Results published in patent US20260317324A1, “BIFUNCTIONAL COMPOUNDS FOR DEGRADING BRAF VIA UBIQUITIN PROTEOSOME PATHWAY” (Nurix Therapeutics, Inc., priority 2023, published 2026).

How the values were obtained:
Format in all cases: cell-based
BRAF D594G = molecular target: T1, BRAF D594G (Homo sapiens, UniProt P15056, D594G); test: BRAF HiBiT degradation assay, C-terminal HiBiT-tagged BRAF D594G overexpressed in HCT-116 BRAF−/− cells (clone 63), Nano-Glo HiBiT Lytic assay
T1 construct: Horizon Discovery (HCT-116 BRAF−/− cells); host or cells: HCT-116 BRAF−/− cells, clone 63, lentiviral transduction
In short: (§1)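 Luminescence from the lytic HiBiT reagent, read after 10 min at room temperature, measured tagged BRAF remaining in lentivirally transduced HCT-116 BRAF−/− cells. Compounds were tested from 1 μM to 0.01 nM in half-log steps at 0.2% DMSO. DC50 values were fitted at 50% remaining.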

BRAF G466V = molecular target: T2, BRAF G466V (Homo sapiens, UniProt P15056, G466V); test: BRAF HiBiT degradation assay, C-terminal HiBiT-tagged BRAF G466V overexpressed in HCT-116 BRAF−/− cells (clone 8), Nano-Glo HiBiT Lytic assay
T2 construct: Horizon Discovery (HCT-116 BRAF−/− cells); host or cells: HCT-116 BRAF−/− cells, clone 8, lentiviral transduction
In short: as §1

BRAF V600E = molecular target: T3, BRAF V600E (Homo sapiens, UniProt P15056, V600E); test: BRAF HiBiT degradation assay, C-terminal HiBiT-tagged BRAF V600E A375 cells (clone 1F10), Nano-Glo HiBiT Lytic assay; details: for Dmax: A-375
T3 construct: endogenous C-terminal HiBiT fusion tag on BRAF V600E allele; endogenous in cells; host or cells: A375 clone 1F10 (CRISPR-Cas9 knock-in of the HiBiT tag; parental A375 from ATCC)
In short: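 Endogenous BRAF V600E-HiBiT A375 (1F10), 10,000 cells/well, 24 h preculture; cpd 11-pt, 1 μM–0.01 nM half-log, n=2, 0.2% DMSO; HiBiT lytic detection 10 min RT; DC50 = fitted conc at Y=50; Obs. Dmax vs DMSO.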

BRAF G469A = molecular target: T4, BRAF G469A (Homo sapiens, UniProt P15056, G469A); test: BRAF HiBiT degradation assay, C-terminal HiBiT-tagged BRAF G469A overexpressed in HCT-116 BRAF−/− cells (clone 34), Nano-Glo HiBiT Lytic assay
T4 construct: Horizon Discovery (HCT-116 BRAF−/− cells); host or cells: HCT-116 BRAF−/− cells, clone 34, lentiviral transduction
In short: as §1

[1] = BRAF D594G (Class 3), HCT-116 BRAF−/− cells, DC50 at 50% degradation
[2] = BRAF D594G (Class 3), HCT-116 BRAF−/− cells, observed Dmax relative to DMSO control
[3] = BRAF G466V (Class 3), HCT-116 BRAF−/− cells, DC50 at 50% degradation
[4] = BRAF G466V (Class 3), HCT-116 BRAF−/− cells, observed Dmax relative to DMSO control
[5] = A375 (BRAF V600E, Class 1), DC50 at 50% degradation
[6] = A375 (BRAF V600E, Class 1), observed Dmax, % protein degraded relative to DMSO control
[7] = BRAF G469A (Class 2), HCT-116 BRAF−/− cells, DC50 at 50% degradation
[8] = BRAF G469A (Class 2), HCT-116 BRAF−/− cells, observed Dmax relative to DMSO control
[9] = BRAF D594G, DC50 at 50%: fitted conc. at Y=50
[10] = HCT-116, BRAF D594G, percentage protein degraded at maximal compound effect relative to DMSO
[11] = BRAF G466V, DC50 at 50%: fitted conc. at Y=50
[12] = HCT-116, BRAF G466V, percentage protein degraded at maximal compound effect relative to DMSO
[13] = A375 (BRAF V600E), DC50 at 50%: fitted conc. at Y=50
[14] = A375 (BRAF V600E), percentage protein degraded at maximal compound effect relative to DMSO
[15] = Class 2, BRAF G469A, DC50 at 50%: fitted conc. at Y=50
[16] = HCT-116, Class 2, BRAF G469A, percentage protein degraded at maximal compound effect relative to DMSO

T2 sequence (P15056 whole entry G466V): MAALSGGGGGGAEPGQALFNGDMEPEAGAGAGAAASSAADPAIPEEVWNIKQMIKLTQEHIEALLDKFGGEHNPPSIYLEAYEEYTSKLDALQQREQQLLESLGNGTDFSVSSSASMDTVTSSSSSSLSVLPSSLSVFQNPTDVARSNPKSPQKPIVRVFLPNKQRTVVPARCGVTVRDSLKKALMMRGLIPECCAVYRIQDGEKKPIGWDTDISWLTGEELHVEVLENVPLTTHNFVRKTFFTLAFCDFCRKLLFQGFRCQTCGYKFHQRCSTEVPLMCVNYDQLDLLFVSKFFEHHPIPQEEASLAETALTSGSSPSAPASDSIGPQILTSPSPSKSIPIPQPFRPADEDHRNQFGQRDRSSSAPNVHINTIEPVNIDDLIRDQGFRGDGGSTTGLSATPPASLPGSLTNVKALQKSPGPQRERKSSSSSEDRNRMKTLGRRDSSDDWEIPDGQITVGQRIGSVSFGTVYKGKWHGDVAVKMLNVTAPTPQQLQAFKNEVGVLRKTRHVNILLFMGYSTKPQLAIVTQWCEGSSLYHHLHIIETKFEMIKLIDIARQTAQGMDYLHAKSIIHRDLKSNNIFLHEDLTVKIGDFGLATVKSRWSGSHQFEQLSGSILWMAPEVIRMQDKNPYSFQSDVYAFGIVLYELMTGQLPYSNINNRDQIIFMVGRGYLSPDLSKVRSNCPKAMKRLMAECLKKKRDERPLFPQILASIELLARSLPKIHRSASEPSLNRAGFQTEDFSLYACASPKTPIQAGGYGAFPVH
T4 sequence (P15056 whole entry G469A): as the sequence (P15056 whole entry G466V) above, with V466G, G469A counted along it
T3 sequence (P15056 whole entry V600E, the tested form may be a part): as the sequence (P15056 whole entry G466V) above, with V466G, V600E counted along it
T1 sequence (P15056 whole entry D594G): as the sequence (P15056 whole entry G466V) above, with V466G, D594G counted along it

Row | Compound | DC50 (BRAF D594G; [1]) | Dmax (BRAF D594G; [2]) | DC50 (BRAF G466V; [3]) | Dmax (BRAF G466V; [4]) | DC50 (BRAF V600E; [5]) | Dmax (BRAF V600E; [6]) | DC50 (BRAF G469A; [7]) | Dmax (BRAF G469A; [8]) | DC50 (BRAF D594G; [9]) | Dmax (BRAF D594G; [10]) | DC50 (BRAF G466V; [11]) | Dmax (BRAF G466V; [12]) | DC50 (BRAF V600E; [13]) | Dmax (BRAF V600E; [14]) | DC50 (BRAF G469A; [15]) | Dmax (BRAF G469A; [16])
1 | CCCS(=O)(=O)Nc1cccc(-c2nc(C3CCC4(CC3)CCN(C(=O)C3CCN(c5ccc(C6CCC(=O)NC6=O)cn5)CC3)CC4)sc2-c2ccnc(N)n2)c1F (racemic) [Compound 246, Rac-N-{3-[5-(2-aminopyrimidin-4-yl)-2-[3-(1-{5-[(3R)-2,6-dioxopiperidin-3-yl]pyridin-2-yl}piperidine-4-carbonyl)-3-azaspiro[5.5]undecan-9-yl]-1,3-thiazol-4-yl]-2-fluorophenyl}propane-1-sulfonamide] | > 0.5 µM | 30 to 70% | > 0.5 µM | < 30% | 0.01 to 0.05 µM | > 70% | > 0.5 µM | < 30% | – | – | – | – | – | – | – | –
2 | CCCS(=O)(=O)Nc1cccc(-c2nc(C3CCC4(CC3)CN(C(=O)CC3CCN(C5CCN(c6ccc7c(c6)C(=O)N(C6CCC(=O)NC6=O)C7=O)CC5)CC3)C4)sc2-c2ccnc(N)n2)c1F (racemic) [Compound 247, Rac-N-{3-[5-(2-aminopyrimidin-4-yl)-2-{2-[2-(1′-{2-[(3R)-2,6-dioxopiperidin-3-yl]-1,3-dioxo-2,3-dihydro-1H-isoindol-5-yl}-[1,4′-bipiperidin]-4-yl)acetyl]-2-azaspiro[3.5]nonan-7-yl}-1,3-thiazol-4-yl]-2-fluorophenyl}propane-1-sulfonamide] | > 0.5 µM | 30 to 70% | > 0.5 µM | 30 to 70% | 0.01 to 0.05 µM | > 70% | > 0.5 µM | < 30% | – | – | – | – | – | – | – | –
3 | CCCS(=O)(=O)Nc1cccc(-c2nc(C3CCN(C(=O)C4CCN(CC5CCN(c6ccc([C@H]7CCC(=O)NC7=O)cc6)CC5)CC4)CC3)sc2-c2ccnc(NC)n2)c1F [Compound 204, N-{3-[2-(1-{1-[(1-{4-[(3R)-2,6-dioxopiperidin-3-yl]phenyl}piperidin-4-yl)methyl]piperidine-4-carbonyl}piperidin-4-yl)-5-[2-(methylamino)pyrimidin-4-yl]-1,3-thiazol-4-yl]-2-fluorophenyl}propane-1-sulfonamide] | – | – | – | – | – | – | – | – | > 0.5 µM | 30 to 70% | > 0.5 µM | 30 to 70% | < 0.01 µM | > 70% | > 0.5 µM | 30 to 70%
4 | CCCS(=O)(=O)Nc1cccc(-c2nc(C(C)(C)C)sc2-c2ccnc(Nc3ccc(N4CCN(CC5CCN(c6ccc([C@H]7CCC(=O)NC7=O)cc6)CC5)CC4)cc3)n2)c1F [Compound 59, N-[3-(2-tert-butyl-5-{2-[(4-{4-[(1-{4-[(3R)-2,6-dioxopiperidin-3-yl]phenyl}piperidin-4-yl)methyl]piperazin-1-yl}phenyl)amino]pyrimidin-4-yl}-1,3-thiazol-4-yl)-2-fluorophenyl]propane-1-sulfonamide] | – | – | – | – | – | – | – | – | 0.01 to 0.05 µM | 30 to 70% | < 0.01 µM | > 70% | 0.01 to 0.05 µM | > 70% | > 0.5 µM | 30 to 70%
5 | CCN(C)S(=O)(=O)Nc1cccc(-c2nc(C)sc2-c2ccnc(Nc3ccc(N4CCN(C(=O)C5CCN(c6ccc(C7CCC(=O)NC7=O)cn6)CC5)CC4)cn3)n2)c1F (racemic) [Compound 40, Rac-(3S)-3-[6-(4-{4-[6-({4-[4-(3-{[ethyl(methyl)sulfamoyl]amino}-2-fluorophenyl)-2-methyl-1,3-thiazol-5-yl]pyrimidin-2-yl}amino)pyridin-3-yl]piperazine-1-carbonyl}piperidin-1-yl)pyridin-3-yl]piperidine-2,6-dione] | – | – | – | – | – | – | – | – | > 0.5 µM | 30 to 70% | > 0.5 µM | 30 to 70% | < 0.01 µM | > 70% | 0.01 to 0.05 µM | 30 to 70%
6 | CCCS(=O)(=O)Nc1cccc(-c2nc(C3CCC4(CC3)CCN(CC3CCN(c5ccc6c(c5)CN(C5CCC(=O)NC5=O)C6=O)CC3)CC4)sc2-c2ccnc(N)n2)c1F (racemic) [Compound 258, Rac-N-{3-[5-(2-aminopyrimidin-4-yl)-2-{3-[(1-{2-[(3R)-2,6-dioxopiperidin-3-yl]-1-oxo-2,3-dihydro-1H-isoindol-5-yl}piperidin-4-yl)methyl]-3-azaspiro[5.5]undecan-9-yl}-1,3-thiazol-4-yl]-2-fluorophenyl}propane-1-sulfonamide] | > 0.5 µM | < 30% | > 0.5 µM | 30 to 70% | < 0.01 µM | 30 to 70% | > 0.5 µM | < 30% | – | – | – | – | – | – | – | –

More lines, now with the values ahead:

Row | DC50 (BRAF D594G; [1]) | Dmax (BRAF D594G; [2]) | DC50 (BRAF G466V; [3]) | Dmax (BRAF G466V; [4]) | DC50 (BRAF V600E; [5]) | Dmax (BRAF V600E; [6]) | DC50 (BRAF G469A; [7]) | Dmax (BRAF G469A; [8]) | DC50 (BRAF D594G; [9]) | Dmax (BRAF D594G; [10]) | DC50 (BRAF G466V; [11]) | Dmax (BRAF G466V; [12]) | DC50 (BRAF V600E; [13]) | Dmax (BRAF V600E; [14]) | DC50 (BRAF G469A; [15]) | Dmax (BRAF G469A; [16]) | Compound
7 | < 0.01 µM | 30 to 70% | < 0.01 µM | > 70% | < 0.01 µM | > 70% | 0.01 to 0.05 µM | 30 to 70% | – | – | – | – | – | – | – | – | O=C1CC[C@H](c2ccc(N3CCC(CN4CCN(c5ccc(-n6cc(-c7cc(Cl)cc(NS(=O)(=O)N8CCCC8)c7F)c(-c7ccncc7)n6)c(F)c5)CC4)CC3)cc2)C(=O)N1 [Compound 281, N-{5-chloro-3-[1-(4-{4-[(1-{4-[(3R)-2,6-dioxopiperidin-3-yl]phenyl}piperidin-4-yl)methyl]piperazin-1-yl}-2-fluorophenyl)-3-(pyridin-4-yl)-1H-pyrazol-4-yl]-2-fluorophenyl}pyrrolidine-1-sulfonamide]
8 | > 0.5 µM | < 30% | > 0.5 µM | < 30% | 0.01 to 0.05 µM | 30 to 70% | > 0.5 µM | < 30% | – | – | – | – | – | – | – | – | CCCS(=O)(=O)Nc1cccc(-c2nc(C3CCC4(CC3)CCN(CC3CCN(c5ccc(C6CCC(=O)NC6=O)cn5)CC3)CC4)sc2-c2ccnc(N)n2)c1F (racemic) [Compound 260, Rac-N-{3-[5-(2-aminopyrimidin-4-yl)-2-{3-[(1-{5-[(3R)-2,6-dioxopiperidin-3-yl]pyridin-2-yl}piperidin-4-yl)methyl]-3-azaspiro[5.5]undecan-9-yl}-1,3-thiazol-4-yl]-2-fluorophenyl}propane-1-sulfonamide]
9 | < 0.01 µM | 30 to 70% | < 0.01 µM | > 70% | 0.01 to 0.05 µM | > 70% | 0.01 to 0.05 µM | 30 to 70% | – | – | – | – | – | – | – | – | O=C1CCC(c2c(F)cc(N3CCC(CN4CCN(c5ccc(-n6cc(-c7cc(Cl)cc(NS(=O)(=O)N8CCCC8)c7F)c(-c7ccncc7)n6)cc5)CC4)CC3)cc2F)C(=O)N1 (racemic) [Compound 387, Rac-N-{5-chloro-3-[1-(4-{4-[(1-{4-[(3R)-2,6-dioxopiperidin-3-yl]-3,5-difluorophenyl}piperidin-4-yl)methyl]piperazin-1-yl}phenyl)-3-(pyridin-4-yl)-1H-pyrazol-4-yl]-2-fluorophenyl}pyrrolidine-1-sulfonamide]
10 | < 0.01 µM | 30 to 70% | < 0.01 µM | > 70% | < 0.01 µM | > 70% | 0.01 to 0.05 µM | > 70% | – | – | – | – | – | – | – | – | O=C1CC[C@H](c2ccc(N3CCC(CN4CCN(c5ccc(-n6cc(-c7cc(F)cc(NS(=O)(=O)N8CCCC8)c7F)c(-c7ccncc7)n6)cc5)CC4)CC3)nc2)C(=O)N1 [Compound 301, N-{3-[1-(4-{4-[(1-{5-[(3R)-2,6-dioxopiperidin-3-yl]pyridin-2-yl}piperidin-4-yl)methyl]piperazin-1-yl}phenyl)-3-(pyridin-4-yl)-1H-pyrazol-4-yl]-2,5-difluorophenyl}pyrrolidine-1-sulfonamide]
